According to patent US10208059B2, “Heterocyclic modulators of HIF activity for treatment of disease” (Board of Regents, University of Texas System, priority 2012, dated 2019):
Structures can show the parent of a compound that is named as a salt.

test system: 293T-HRE-GFP-luc cells; assay: Cell-based reporter assay for IC50 determinations; settings: hypoxia 6 hrs (1% O2), luminescence, read-out: IC50 Classification
Outline: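 IC50 comes from a four-parameter logistic fit of luminescence from HRE-GFP-luc 293T cells. Compounds (1:3 series, 1:50 medium dilution) were preincubated 30 min under normoxia, followed by 6 h at 1% O2, 5% CO2, 37 °C, before Steadylite luciferase detection.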

`Cc1nc(-c2nc(-c3ccc(OC(F)(F)F)cc3)no2)nn1Cc1cccc(N2CCOCC2)c1` [Example 44, 4-(3-((5-Methyl-3-(3-(4-(trifluoromethoxy)phenyl)-1,2,4-oxadiazol-5-yl)-1H-1,2,4-triazol-1-yl)methyl)phenyl)morpholine] and `Cc1nc(-c2noc(-c3ccc(OC(F)(F)F)cc3)n2)nn1Cc1cccc(N2CCOCC2)c1` [Example 57, 4-(3-((5-Methyl-3-(5-(4-(trifluoromethoxy)phenyl)-1,2,4-oxadiazol-3-yl)-1H-1,2,4-triazol-1-yl)methyl)phenyl)morpholine] cannot be ordered by IC50: under 100 nM for the first, under 100 nM for the second.

`COCCOc1cccc(Cn2nc(-c3ncc(-c4ccc(OC(F)(F)F)cc4)o3)nc2C)c1` [Example 158, l-{[3-(2-methoxyethoxy)phenyl]methyl}-5-methyl-3-{5-[4-(trifluoromethoxy)phenyl]-1,3-oxazol-2-yl}-1H-1,2,4-triazole] and `Cc1nc(-c2nc(-c3ccc(OC(F)(F)F)cc3)no2)nn1Cc1cccc(OCCCN(C)C)c1` [Example 74, Dimethyl(3-{3-[(5-methyl-3-{3-[4-(trifluoromethoxy)phenyl]-1,2,4-oxadiazol-5-yl}-1H-1,2,4-triazol-1-yl)methyl]phenoxy}propyl)amine] cannot be ordered by IC50: under 100 nM for the first, under 100 nM for the second.

`Cc1ccc(-c2noc(-c3nc(C)n(Cc4ccnc(N5CCN(C)CC5)c4)n3)n2)cc1` [Example 22, 1-Methyl-4-(4-((5-methyl-3-(3-(p-tolyl)-1,2,4-oxadiazol-5-yl)-1H-1,2,4-triazol-1-yl)methyl)pyridin-1-ium-2-yl)piperazin-1-ium bis-trifluoroacetate] and `Cc1nc(-c2nnc(-c3ccc(OC(F)(F)F)cc3)o2)nn1Cc1ccnc(N2CCN(C)CC2)c1` [Example 7, 1-Methyl-4-(4-((5-methyl-3-(5-(4-(trifluoromethoxy)phenyl)-1,3,4-oxadiazol-2-yl)-1H-1,2,4-triazol-1-yl)methyl)pyridin-1-ium-2-yl)piperazin-1-ium trifluoroacetate] fall in the same range of IC50: 100 to 1000 nM for the first, 100 to 1000 nM for the second.

`COCCCn1cc(Cn2nc(-c3nc(-c4ccc(OC(F)(F)F)cc4)no3)nc2C)ccc1=O` [Example 140, 1-(3-methoxypropyl)-5-[(5-methyl-3-{3-[4-(trifluoromethoxy)phenyl]-1,2,4-oxadiazol-5-yl}-1H-1,2,4-triazol-1-yl)methyl]-1,2-dihydropyridin-2-one] and `Cc1nc(-c2nc(-c3ccc(OC(F)(F)F)cc3)no2)nn1Cc1ccc(=O)n(CCN(C)C)c1` [Example 128, 1-[2-(dimethylamino)ethyl]-5-[(5-methyl-3-{3-[4-(trifluoromethoxy)phenyl]-1,2,4-oxadiazol-5-yl}-1H-1,2,4-triazol-1-yl)methyl]-1,2-dihydropyridin-2-one] fall in the same range of IC50: 100 to 1000 nM for the first, 100 to 1000 nM for the second.

First: Cc1nc(-c2nc(-c3ccc(OC(F)(F)F)cc3)no2)nn1Cc1cccc(C(=O)NCCO)c1 [Example 39, N-(2-Hydroxyethyl)-3-((5-methyl-3-(3-(4-(trifluoromethoxy)phenyl)-1,2,4-oxadiazol-5-yl)-1H-1,2,4-triazol-1-yl)methyl)benzamide]
Second: Cc1nc(-c2nc(-c3ccc(OC(F)(F)F)cc3)no2)nn1Cc1cccc(S(=O)(=O)NCCO)c1 [Example 131, 2-hydroxy-S-(3-[(5-methyl-3-{3-[4-(trifluoromethoxy)phenyl]-1,2,4-oxadiazol-5-yl}-1H-1,2,4-triazol-1-yl)methyl]phenyl}ethane-1-sulfonamido]
The IC50 of the first is higher: 100 to 1000 nM for the first, under 100 nM for the second.

`Cc1nc(-c2nc(-c3ccc(OC(F)(F)F)cc3)no2)nn1Cc1cccc(OCCC(C)(C)O)c1` [Example 126, 2-methyl-4-{3-[(5-methyl-3-{3-[4-(trifluoromethoxy)phenyl]-1,2,4-oxadiazol-5-yl}-1H-1,2,4-triazol-1-yl)methyl]phenoxy}butan-2-ol] and `Cc1nc(-c2nc(-c3ccc(OC(F)(F)F)cc3)no2)nn1Cc1cccc(OC(C)C)c1` [Example 63, 5-(5-Methyl-1-{[3-(propan-2-yloxy)phenyl]methyl}-1H-1,2,4-triazol-3-yl)-3-[4-(trifluoromethoxy)phenyl]-1,2,4-oxadiazole] cannot be ordered by IC50: under 100 nM for the first, under 100 nM for the second.

`Cc1nc(-c2nc(-c3ccc(OC(F)(F)F)cc3)no2)nn1Cc1cc[nH]c(=O)c1` [Example 75, 4-[(5-Methyl-3-{3-[4-(trifluoromethoxy)phenyl]-1,2,4-oxadiazol-5-yl}-1H-1,2,4-triazol-1-yl)methyl]-1,2-dihydropyridin-2-one] and `Cc1nc(-c2nc(-c3ccc(OC(F)(F)F)cc3)no2)nn1Cc1cccc(O)c1` [Example 59, 3-((5-Methyl-3-(3-(4-(trifluoromethoxy)phenyl)-1,2,4-oxadiazol-5-yl)-1H-1,2,4-triazol-1-yl)methyl)phenol] fall in the same range of IC50: 100 to 1000 nM for the first, 100 to 1000 nM for the second.

First: Cc1nc(-c2noc(-c3ccc(OC(F)(F)F)cc3)n2)nn1Cc1cccc(N(C)C)c1 [Example 58, N,N-Dimethyl-3-((5-methyl-3-(5-(4-(trifluoromethoxy)phenyl)-1,2,4-oxadiazol-3-yl)-1H-1,2,4-triazol-1-yl)methyl)aniline]
Second: Cc1cccc(Cn2nc(-c3nc(-c4ccc(OC(F)(F)F)cc4)no3)nc2C)c1 [Example 100, 5-(5-methyl-1-(3-methylbenzyl)-1H-1,2,4-triazol-3-yl)-3-(4-(trifluoromethoxy)phenyl)-1,2,4-oxadiazole]
The IC50 of the first is lower: 100 to 1000 nM for the first, 1000 to 10000 nM for the second.

`Cc1nc(-c2nc(-c3ccc(OC(F)(F)F)cc3)no2)nn1Cc1ccnc(N2CCC(O)CC2)c1` [Example 26, 1-(4-((5-Methyl-3-(3-(4-(trifluoromethoxy)phenyl)-1,2,4-oxadiazol-5-yl)-1H-1,2,4-triazol-1-yl)methyl)pyridin-2-yl)piperidin-4-ol] and `Cc1nc(-c2nc(-c3ccc(OC(F)(F)F)cc3)no2)nn1Cc1cccc(N2CCC(C#N)CC2)c1` [Example 51, 1-(3-((5-Methyl-3-(3-(4-(trifluoromethoxy)phenyl)-1,2,4-oxadiazol-5-yl)-1H-1,2,4-triazol-1-yl)methyl)phenyl)piperidine-4-carbonitrile] cannot be ordered by IC50: under 100 nM for the first, under 100 nM for the second.

`Cc1nc(-c2cc(-c3ccc(OC(F)(F)F)cc3)on2)nn1Cc1ccnc(N2CCN(C)CC2)c1` [Example 163, 1-methyl-4-{4-[(5-methyl-3-{5-[4-(trifluoromethoxy)phenyl]-1,2-oxazol-3-yl}-1H-1,2,4-triazol-1-yl)methyl]pyridin-2-yl}piperazine] and `Cc1nc(-c2cc(-c3ccc(OC(F)(F)F)cc3)on2)nn1Cc1cccc(N2CCC(S(C)(=O)=O)CC2)c1` [Example 96, 3-(5-Methyl-1-(3-(4-(methylsulfonyl)piperidin-1-yl)benzyl)-1H-1,2,4-triazol-3-yl)-5-(4-(trifluoromethoxy)phenyl)isoxazole] cannot be ordered by IC50: under 100 nM for the first, under 100 nM for the second.

`Cc1nc(-c2nc(-c3ccc(OC(F)(F)F)cc3)no2)nn1Cc1ccc(OCC(C)C)nc1` [Example 77b, 5-[(5-Methyl-3-{3-[4-(trifluoromethoxy)phenyl]-1,2,4-oxadiazol-5-yl}-1H-1,2,4-triazol-1-yl)methyl]-2-(2-methylpropoxy)pyridine] and `COCCCOc1ccc(Cn2nc(-c3nc(-c4ccc(OC(F)(F)F)cc4)no3)nc2C)cn1` [Example 129, 2-(3-methoxypropoxy)-5-[(5-methyl-3-{3-[4-(trifluoromethoxy)phenyl]-1,2,4-oxadiazol-5-yl}-1H-1,2,4-triazol-1-yl)methyl]pyridine] fall in the same range of IC50: 100 to 1000 nM for the first, 100 to 1000 nM for the second.

First: CNS(=O)(=O)c1cccc(Cn2nc(-c3nc(-c4ccc(OC(F)(F)F)cc4)no3)nc2C)c1 [Example 136, N-methyl-3-[(5-methyl-3-{3-[4-(trifluoromethoxy)phenyl]-1,2,4-oxadiazol-5-yl}-1H-1,2,4-triazol-1-yl)methyl]benzene-1-sulfonamide]
Second: Cc1nc(-c2nc(-c3ccc(OC(F)(F)F)cc3)no2)nn1Cc1cccc(S(N)(=O)=O)c1 [Example 104, 3-((5-methyl-3-(3-(4-(trifluoromethoxy)phenyl)-1,2,4-oxadiazol-5-yl)-1H-1,2,4-triazol-1-yl)methyl)benzenesulfonamide]
The IC50 of the first is lower: under 100 nM for the first, 100 to 1000 nM for the second. The first is the more potent here.

Compared with `COc1ccc(Cn2nc(-c3nc(-c4ccc(OC(F)(F)F)cc4)no3)nc2C)cc1C(F)(F)F` [Example 112, 5-(1-(4-methoxy-3-(trifluoromethyl)benzyl)-5-methyl-1H-1,2,4-triazol-3-yl)-3-(4-(trifluoromethoxy)phenyl)-1,2,4-oxadiazole], `Cc1nc(-c2nc(-c3ccc(OC(F)(F)F)cc3)no2)nn1Cc1ccc2c(c1)OCO2` [Example 111, 5-(1-(benzo[d][1,3]dioxol-5-ylmethyl)-5-methyl-1H-1,2,4-triazol-3-yl)-3-(4-(trifluoromethoxy)phenyl)-1,2,4-oxadiazole] is lower in IC50: 1000 to 10000 nM for the first, 100 to 1000 nM for the second. The second is the more potent here.

`Cc1nc(-c2nnc(-c3ccc(C(C)(C)C)cc3)o2)nn1Cc1cccc(N2CCOCC2)c1` [Example 98, 4-(3-((3-(5-(4-(tert-butyl)phenyl)-1,3,4-oxadiazol-2-yl)-5-methyl-1H-1,2,4-triazol-1-yl)methyl)phenyl)morpholine] and `Cc1nc(-c2nc(-c3ccc(OC(F)(F)F)cc3)no2)nn1Cc1cccc(C(O)CO)c1` (stereo not shown) [Example 85, 1-{3-[(5-Methyl-3-{3-[4-(trifluoromethoxy)phenyl]-1,2,4-oxadiazol-5-yl}-1H-1,2,4-triazol-1-yl)methyl]phenyl}ethane-1,2-diol] cannot be ordered by IC50: under 100 nM for the first, under 100 nM for the second.

`Cc1nc(-c2nc(-c3ccc(OC(F)(F)F)cc3)no2)nn1Cc1ccnc(N(C)C)c1` [Example 37, N,N-Dimethyl-4-((5-methyl-3-(3-(4-(trifluoromethoxy)phenyl)-1,2,4-oxadiazol-5-yl)-1H-1,2,4-triazol-1-yl)methyl)pyridin-2-amine] and `CNc1cc(Cn2nc(-c3nc(-c4ccc(OC(F)(F)F)cc4)no3)nc2C)ccn1` [Example 36, N-Methyl-4-((5-methyl-3-(3-(4-(trifluoromethoxy)phenyl)-1,2,4-oxadiazol-5-yl)-1H-1,2,4-triazol-1-yl)methyl)pyridin-2-amine] cannot be ordered by IC50: under 100 nM for the first, under 100 nM for the second.

In the case of `COC(=O)c1cccc(Cn2nc(-c3nc(-c4ccc(OC(F)(F)F)cc4)cs3)nc2C)c1` [Example 150, methyl 3-[(5-methyl-3-{4-[4-(trifluoromethoxy)phenyl]-1,3-thiazol-2-yl}-1H-1,2,4-triazol-1-yl)methyl]benzoate], the IC50 is reported as 100 to 1000 nM.
